Assay results: patent US20200308170A1, “KRAS G12C INHIBITORS” (Mirati Therapeutics, Inc., priority 2017, published 2020)

What was measured:
KRas G12C [1] = target: T1, KRas G12C (Homo sapiens, UniProt P01116, C118S/C51S/C80L/G12C); assay: KRas G12C Modification Assay (LCMS detection of covalent adduct); type: binding; conditions: 5 μM concentration for 3 hours; LC/MS of intact protein; higher POC = higher degree of modification
T1 construct: GDP-loaded K-Ras (1-169) G12C, C51S, C80L, C118S
Method: A 10 μL aliquot of each protein solution was then transferred to a 384 well microtiter plate. Initial compound stocks were generated at fifty times their desired final assay concentration in DMSO.
Exemplary compounds of Formula (II) were diluted 25-fold into K-Ras Assay Buffer to a final of two times their final concentration. A 10 μL aliquot of each diluted compound solution was then added to each of the protein solutions in the microtiter plate to initiate reaction. […] At each time point, the reactions were quenched with 20 μL of a 25 mM acetic acid solution. […] Once all reactions were quenched, the plates were heat sealed and the samples were injected into a LC/MS system for data acquisition.
Samples were injected in their liquid phase onto a C-3 reverse phase column to remove assay buffer and prepare the samples for mass spectrometer. The proteins were eluted from the column using an acetonitrile gradient and fed directly into the mass analyzer. Initial raw data analysis took place in Agilent MassHunter software immediately post data acquisition.
Raw data analysis of the intact protein was exclusively a deconvolution of the multiple charge states of each protein in solution using a maximum entropy deconvolution provided in Mass Hunter. To minimize complexity, only the data over limited mass ranges were considered for analysis, with a minimum of one Dalton mass step intervals. The heights of all masses identified during raw data analysis were exported to be further analyzed in Spotfire® data analysis software.
Final data analysis was a multistep process in the Spotfire® data analysis software package. Briefly, each protein mass was calculated as a percent of the total signal of that sample, that percentage was then normalized to the percentage of signal of the protein in the absence of reactive compounds. Those normalized signals were reported as normalized percent of control (POC). […] Key: “A”≤25% POC; “B”>25% POC−≤50% POC; “C”>50% POC and ND=not determined.

KRas G12C [2] = target: KRas G12C (Homo sapiens, UniProt P01116, G12C); assay: Inhibition of KRas G12C in NCI-H358 cells measured by phosphorylated ERK (Phospho-ERK); type: cell-based; conditions: 3 hours, 4 parameter fit, read-out: IC50 (pERK(Thr202/Tyr204) signal normalized with GAPDH)
Method: Cells were plated in poly-D-Lysine coated 96-well plates at a concentration of 50,000 cells/well and allowed to attach for 8-12 hours. Diluted compounds were then added at a final concentration of 0.5% DMSO. After 3 hours, the medium was removed, 150 μL of 4% formaldehyde was added and the plates were incubated for 20 minutes. The plates were washed with PBS, and permeabilized using 150 μL of ice cold 100% methanol for 10 minutes. Non-specific antibody binding to the plates was blocked using 100 μL Licor Blocking Buffer (Li-Cor Biotechnology, Lincoln Nebr.) for 1 hour at room temperature. Positive control samples and samples lacking cells were parallel processed with test samples as standards.
The amount Phospho-ERK was determined using an antibody specific for the phosphorylated form of ERK and compared to the amount of GAPDH. […] The plates were incubated for 2 hours at room temperature. The plates were washed with PBS+0.05% Tween 20.
Secondary antibodies used to visualize primary antibodies were added as follows: Anti-rabbit-680 diluted 1:1000 and Anti-mouse-800 diluted 1:1000 in Licor Block+0.05% Tween 20 and incubated for 1 hour at room temperature. The plates were washed with PBS+0.05% Tween 20. A 100 μL aliquot of PBS was added to each well and the plates were read on a LICOR AERIUS plate reader.
The pERK(Thr202/Tyr204) signal was normalized with the GAPDH signal and percent of DMSO control values were calculated. IC50 values were generated using a 4 parameter fit of the dose response curve.

SMILES | POC (normalized percent of control; degree of covalent modification of KRas G12C) (KRas G12C [1]) | IC50 (KRas G12C [2])
C=C(F)C(=O)N1CCN(c2nc(OC[C@@H]3CCCN3C)nc3c2CCN(c2cccc(C)c2C)C3)C[C@@H]1CC#N [Example 1, 2-[(2S)-4-[7-(2,3-dimethylphenyl)-2-[[(2S)-1-methylpyrrolidin-2-yl]methoxy]-6,8-dihydro-5H-pyrido[3,4-d]pyrimidin-4-yl]-1-(2-fluoroprop-2-enoyl)piperazin-2-yl]acetonitrile] | C (“C”>50% POC) | –
C=C(Cl)C(=O)N1CCN(c2nc(OC[C@@H]3CCCN3C)nc3c2CCN(c2cccc(C)c2C)C3)C[C@@H]1CC#N [Example 2, 2-[(2S)-1-(2-chloroprop-2-enoyl)-4-[7-(2,3-dimethylphenyl)-2-[[(2S)-1-methylpyrrolidin-2-yl]methoxy]-6,8-dihydro-5H-pyrido[3,4-d]pyrimidin-4-yl]piperazin-2-yl]acetonitrile] | C (“C”>50% POC) | –
CN1CCC[C@H]1COc1nc2c(c(N3CCN(C(=O)C#CCO)[C@@H](CC#N)C3)n1)CCN(c1cccc3ccccc13)C2 [Example 3, 2-((S)-1-(4-hydroxybut-2-ynoyl)-4-(2-(((S)-1-methylpyrrolidin-2-yl)methoxy)-7-(naphthalen-1-yl)-5,6,7,8-tetrahydropyrido[3,4-d]pyrimidin-4-yl)piperazin-2-yl)acetonitrile] | C (“C”>50% POC) | –
[2H]C([2H])=C([2H])C(=O)N1CCN(c2nc(OC[C@@H]3CCCN3C)nc3c2CCN(c2cccc4ccccc24)C3)C[C@@H]1CC#N [Example 4, 2-[(2S)-4-[2-[[(2S)-1-methylpyrrolidin-2-yl]methoxy]-7-(1-naphthyl)-6,8-dihydro-5H-pyrido[3,4-d]pyrimidin-4-yl]-1-(2,3,3-trideuterioprop-2-enoyl)piperazin-2-yl]acetonitrile] | C (“C”>50% POC) | –
Cc1cccc(N2CCc3c(nc(OC[C@@H]4CCCN4C)nc3N3CCN(C(=O)/C=C/CN4CCC(F)C4)[C@@H](CC#N)C3)C2)c1C (stereo partly drawn) [Example 5, 2-[(2S)-4-[7-(2,3-dimethylphenyl)-2-[[(2S)-1-methylpyrrolidin-2-yl]methoxy]-6,8-dihydro-5H-pyrido[3,4-d]pyrimidin-4-yl]-1-[(E)-4-(3-fluoropyrrolidin-1-yl)but-2-enoyl]piperazin-2-yl]acetonitrile] | C (“C”>50% POC) | –
CN1CCC[C@H]1COc1nc2c(c(N3CCN(C(=O)/C=C/CF)[C@@H](CC#N)C3)n1)CCN(c1cccc3cccc(Cl)c13)C2 [Example 8, 2-[(2S)-4-[7-(8-chloro-1-naphthyl)-2-[[(2S)-1-methylpyrrolidin-2-yl]methoxy]-6,8-dihydro-5H-pyrido[3,4-d]pyrimidin-4-yl]-1-[(E)-4-fluorobut-2-enoyl]piperazin-2-yl]acetonitrile] | C (“C”>50% POC) | –
CN1CCC[C@H]1COc1nc2c(c(N3CCN(C(=O)/C=C/CN4CCC(F)C4)[C@@H](CC#N)C3)n1)CCN(c1cccc3cccc(Cl)c13)C2 (stereo partly drawn) [Example 9, 2-[(2S)-4-[7-(8-chloro-1-naphthyl)-2-[[(2S)-1-methylpyrrolidin-2-yl]methoxy]-6,8-dihydro-5H-pyrido[3,4-d]pyrimidin-4-yl]-1-[(E)-4-(3-fluoropyrrolidin-1-yl)but-2-enoyl]piperazin-2-yl]acetonitrile] | C (“C”>50% POC) | –
CN1CCC[C@H]1COc1nc2c(c(N3CCN(C(=O)/C=C/CN4CC(F)C4)[C@@H](CC#N)C3)n1)CCN(c1cccc3cccc(Cl)c13)C2 [Example 10, 2-[(2S)-4-[7-(8-chloro-1-naphthyl)-2-[[(2S)-1-methylpyrrolidin-2-yl]methoxy]-6,8-dihydro-5H-pyrido[3,4-d]pyrimidin-4-yl]-1-[(E)-4-(3-fluoroazetidin-1-yl)but-2-enoyl]piperazin-2-yl]acetonitrile] | C (“C”>50% POC) | –
COC/C=C(\F)C(=O)N1CCN(c2nc(OCC34CCCN3CCC4)nc3c2CCN(c2cccc4ccc(F)c(Cl)c24)C3)C[C@@H]1CC#N [Example 206, (S, Z)-2-(4-(7-(8-chloro-7-fluoronaphthalen-1-yl)-2-((tetrahydro-1H-pyrrolizin-7a(5H)-yl)methoxy)-5,6,7,8-tetrahydropyrido[3,4-d]pyrimidin-4-yl)-1-(2-fluoro-4-methoxybut-2-enoyl)piperazin-2-yl)acetonitrile] | – | 0.1 to 1000 nM
N#CC[C@H]1CN(c2nc(OCC34CCCN3CCC4)nc3c2CCN(c2cccc4ccc(F)c(Cl)c24)C3)CCN1C(=O)/C(F)=C/CF [Example 207, (S, Z)-2-(4-(7-(8-chloro-7-fluoronaphthalen-1-yl)-2-((tetrahydro-1H-pyrrolizin-7a(5H)-yl)methoxy)-5,6,7,8-tetrahydropyrido[3,4-d]pyrimidin-4-yl)-1-(2,4-difluorobut-2-enoyl)piperazin-2-yl)acetonitrile] | – | 0.1 to 1000 nM
C=C(F)C(=O)N1CCN(c2nc(OC[C@@H]3CC(F)(F)CN3)nc3c2CCN(c2cccc4ccc(F)c(Cl)c24)C3)C[C@@H]1CC#N [Example 208, 2-((S)-4-(7-(8-chloro-7-fluoronaphthalen-1-yl)-2-(((S)-4,4-difluoropyrrolidin-2-yl)methoxy)-5,6,7,8-tetrahydropyrido[3,4-d]pyrimidin-4-yl)-1-(2-fluoroacryloyl)piperazin-2-yl)acetonitrile] | – | 0.1 to 1000 nM
C=C(F)C(=O)N1CCN(c2nc(OC[C@@H]3C[C@@H](F)CN3)nc3c2CCN(c2cccc4ccc(F)c(Cl)c24)C3)C[C@@H]1CC#N [Example 209, 2-((S)-4-(7-(8-chloro-7-fluoronaphthalen-1-yl)-2-(((2S,4R)-4-fluoropyrrolidin-2-yl)methoxy)-5,6,7,8-tetrahydropyrido[3,4-d]pyrimidin-4-yl)-1-(2-fluoroacryloyl)piperazin-2-yl)acetonitrile] | – | 0.1 to 1000 nM
C=C(F)C(=O)N1CCN(c2nc(OC[C@@H]3C[C@@H](OC)CN3)nc3c2CCN(c2cccc4ccc(F)c(Cl)c24)C3)C[C@@H]1CC#N [Example 210, 2-((S)-4-(7-(8-chloro-7-fluoronaphthalen-1-yl)-2-(((2S,4R)-4-methoxypyrrolidin-2-yl)methoxy)-5,6,7,8-tetrahydropyrido[3,4-d]pyrimidin-4-yl)-1-(2-fluoroacryloyl)piperazin-2-yl)acetonitrile] | – | 0.1 to 1000 nM
C=C(F)C(=O)N1CCN(c2nc(OCCNCC(F)F)nc3c2CCN(c2cccc4ccc(F)c(Cl)c24)C3)C[C@@H]1CC#N [Example 211, (S)-2-(4-(7-(8-chloro-7-fluoronaphthalen-1-yl)-2-(2-((2,2-difluoroethyl)amino)ethoxy)-5,6,7,8-tetrahydropyrido[3,4-d]pyrimidin-4-yl)-1-(2-fluoroacryloyl)piperazin-2-yl)acetonitrile] | – | 0.1 to 1000 nM
